Laboratory results from patent US9610294B2, “Methods and compositions for the treatment of fluid accumulation in and/or under the retina” (UNIVERSITE PARIS DESCARTES, priority 2010, dated 2017).
“Also recorded” adds a separate entry of the source.

Columns and labels:
[1] = system: ENaC-α; test: ENaC-α expression (real-time PCR, western blot) in rat RMG primary cultures and retinal explants; format: cell-based
Method: Rat RMG cells were obtained as described (deKozak, Y., Naud, M. C., Bellot, J., Faure, J. P., and Hicks, D. (1994) Differential tumor necrosis factor expression by resident retinal cells from experimental uveitis-susceptible and -resistant rat strains. J Neuroimmunol 55, 1-9). Briefly, rats at postnatal (PN) day 17 (when RMG cells are mature) were sacrificed and eyes enucleated. Intact eyeballs were maintained in DMEM overnight at room temperature in the dark, and then incubated 45 min with 2 mg/ml trypsin/collagenase I at 37° C. The neural retinas were separated from the lens and vitreous, cut into small fragments and plated in Petri dishes containing DMEM supplemented with 10% FCS, 100 units/ml penicillin, 100 µg/ml streptomycin, and 0.2% amphotericin B. Cultures were maintained at 37° C. in a humidified atmosphere containing 5% CO2. After 5 to 6 days, the cultures were washed extensively with medium so that only a strongly adherent flat cell population remained.
Müller cells were seeded in 6-well tissue culture plates (Becton Dickinson, Le Pont de Claix, France). Rat PN17 RMG cells were maintained in their initial Petri dishes. Sub confluent (80%) cells were incubated in media supplemented with 10% steroid-free (charcoal treated) FCS for 24 hrs. Corticosteroid (Sigma-Aldrich, Saint Quentin Fallavier, France) treatments were then applied respectively for a further 24 hrs: 10 nM aldosterone, 10 nM aldosterone plus 1).IM RU38486 (GR-specific antagonist), 10 nM aldosterone plus 1 µM RU26752 (MR-specific antagonist) or 1 µM dexamethasone. The steroids were previously dissolved in 2% steroid-free FCS media containing 0.1% ethanol. Control cells were treated with 0.1% ethanol in media.
After enucleation, rat retinas were isolated immediately under aseptic conditions and cut into 4 pieces. They were then transferred onto a Cyclopore 0.2).Im polycarbonate membrane (Whatman, Maidstone, England), and flatmounted with the vitreal side up. The support membranes were placed in 6-well tissue culture plates containing 2 ml DMEM supplemented with 10% steroid-free FCS, 1% penicillin-streptomycin and 0.1% amphotericin B. Explants were treated with corticosteroids as described for cultured cells. Similarly, the dose-dependent effect of aldosterone (0.1-100 nM) was analyzed on retinal explants in separate experiments.
Total RNA was isolated from the treated RMG cells and retinal explants using RNeasy Mini Kit (Qiagen, Courtaboeuf, France). First-strand cDNA was synthesized after DNase I (Qiagen) treatment using random primers (Invitrogen) and superscript II reverse transcriptase (Invitrogen). Transcript levels of ENaC-a, Kir4.1 and AQP4 were analyzed by real-time PCR performed in 7500 Real-Time PCR System (Applied Biosystems, Foster City, Calif., USA) with either TaqMan® (Applied Biosystems) or SYBR® Green (Invitrogen, Cergy Pontoise, France) detection. The 18S was used as internal control.
Retinal explants were homogenized in Np40 buffer in the presence of protease inhibitors. The protein concentration was determined by the Bradford method. Equal amounts of protein (12 .ug) were separated on Novex® 4%-12% Tris-Glycine gel (Invitrogen), transferred to nitrocellulose, and the blots were incubated with primary antibodies at 4° C. overnight. The membranes were washed, incubated with horse radish peroxidase conjugated goat anti-rabbit IgG (1:3000, Vector, AbCys, Paris, France) for 1 hr at room temperature, and developed using ECL Plus western blotting detection reagents (GE healthcare, Orsay, France). The j3-actin was used as internal control. The following primary antibodies were used: rabbit anti-alpha ENaC (1:500, Abcam, Cambridge, Mass., USA), rabbit anti-Kir4.1 (1:400, Alomone Labs, Jerusalem, Israel), rabbit anti-AQP4 (1:750, Millipore, St Quentin en Yvelines, France) and rabbit anti-j3-actin (1:1000, Abcam)

[2] = system: Kir4.1; test: Kir4.1 immunofluorescence in retina of aldosterone-injected eyes; format: in vivo, Lewis rats; details: intravitreous aldosterone vs sham-injected
Method: (§1) Anesthesia of rats was induced by intramuscular injection of ketamine (100 mg/kg, Virbac, Carros, France) and chlorpromazine (0.65 mg/kg, LARGACTIL®, Sanofi Aventis, Livron sur Drome, France). Intravitreous injections were performed using microfine (300 μl) syringes with 30 G needles under topical anesthesia (tetracaine 1%, Aldrich, Lyon, France). Rat eyes were injected with 5 μl aldosterone diluted in 0.9% saline to obtain a concentration of 200 nM for injection, corresponding to a final concentration of 20 nM in the vitreous. Control rat eyes were injected with 5 μl saline. Twenty-four hrs after injection, rats were sacrificed. Eyes were then removed for retinal flat mounting, immunohistochemistry and morphological analysis respectively.
Eyes were snap frozen in Tissue-Tek OCT-compound (Bayer Diagnostics, Puteaux, France). Ten μm cryostat sections of rat eyes were fixed in 4% PFA for 15 min and permeabilized with 0.1% Triton X-I00 for 30 min. Unspecific binding sites were blocked with 5% normal goat serum for 1 hr. The sections were then incubated with primary antibodies for 1 hr at room temperature, washed in PBS, and further incubated with secondary antibodies for 1 hr. […] Images were taken using a fluorescence microscope (Olympus BX51, Rungis, France) equipped with a CCD camera (Olympus DP70). […]

[3] = system: AQP4; test: AQP4 immunofluorescence and flat-mount confocal imaging in retina of aldosterone-injected eyes; format: in vivo, Lewis rats; details: aldosterone-injected vs sham-injected eyes
Method: as §1
Eyes were fixed for 15 min in 4% paraformaldehyde (PFA, LADD, Inland Europe, Conflans-sur-Lanterne, France). After washing, retinas were isolated, cut by 4 orthogonal incisions and post-fixed with acetone 100% at −20° C. for 15 min. […]
Eyes were snap frozen in Tissue-Tek OCT-compound (Bayer Diagnostics, Puteaux, France). […] Images were taken using a fluorescence microscope (Olympus BX51, Rungis, France) equipped with a CCD camera (Olympus DP70). […]

C[C@]12CCC(=O)C=C1CC[C@@H]1[C@@H]2[C@@H](O)C[C@]2(C=O)[C@@H](C(=O)CO)CC[C@@H]12 [aldosterone]
ENaC-α subunit mRNA expression ([1]; 24 hrs treatment, rat RMG primary cultures and retinal explants): significant up-regulation | dose dependence of ENaC-α transcripts ([1]; aldosterone 0.1-100 nM, retinal explants): dose dependent manner | expression of sodium channel ENaC-a ([1]; aldosterone 24 hrs): 6.5 fold | ENaC-α expression at the protein level ([1]; western blot, retinal explants): up-regulated | Kir4.1 localization in retina [2]: additional localization; also recorded: enhanced Kir4.1 immunofluorescence in the RMG apical microvilli in the OLM; also recorded: additional mislocalization | AQP4 localization / pattern of expression in retina [3]: additional localization; also recorded: extends all along RMG prolongations up to the OLM in their apical microvilli; also recorded: perivascular AQP4 fluorescence is more intense; also recorded: additional mislocalization
